Experiments:
[1] = target: T1, Substance-K receptor (Homo sapiens) (UniProt P21452); assay: Negative allosteric modulation of NK2 receptor (unknown origin) assessed as decrease in agonist-induced cAMP production at 10 uM by cell based FRET assay relative to control; type: functional
T1 sequence (whole entry): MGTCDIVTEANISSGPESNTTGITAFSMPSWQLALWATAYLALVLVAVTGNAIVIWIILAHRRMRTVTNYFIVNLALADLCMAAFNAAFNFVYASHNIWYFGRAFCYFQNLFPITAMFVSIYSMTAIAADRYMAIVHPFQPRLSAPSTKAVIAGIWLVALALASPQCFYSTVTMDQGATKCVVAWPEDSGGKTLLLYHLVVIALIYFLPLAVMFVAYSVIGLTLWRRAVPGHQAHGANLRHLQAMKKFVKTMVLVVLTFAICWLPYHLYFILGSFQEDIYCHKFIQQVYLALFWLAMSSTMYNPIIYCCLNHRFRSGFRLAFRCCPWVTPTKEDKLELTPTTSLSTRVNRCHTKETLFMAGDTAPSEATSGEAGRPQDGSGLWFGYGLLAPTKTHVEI

[2] = target: T2, Muscarinic acetylcholine receptor M4 (Rattus norvegicus, UniProt P08485); assay: Positive allosteric modulation of rat M4 AchR
T2 sequence (P08485 whole entry): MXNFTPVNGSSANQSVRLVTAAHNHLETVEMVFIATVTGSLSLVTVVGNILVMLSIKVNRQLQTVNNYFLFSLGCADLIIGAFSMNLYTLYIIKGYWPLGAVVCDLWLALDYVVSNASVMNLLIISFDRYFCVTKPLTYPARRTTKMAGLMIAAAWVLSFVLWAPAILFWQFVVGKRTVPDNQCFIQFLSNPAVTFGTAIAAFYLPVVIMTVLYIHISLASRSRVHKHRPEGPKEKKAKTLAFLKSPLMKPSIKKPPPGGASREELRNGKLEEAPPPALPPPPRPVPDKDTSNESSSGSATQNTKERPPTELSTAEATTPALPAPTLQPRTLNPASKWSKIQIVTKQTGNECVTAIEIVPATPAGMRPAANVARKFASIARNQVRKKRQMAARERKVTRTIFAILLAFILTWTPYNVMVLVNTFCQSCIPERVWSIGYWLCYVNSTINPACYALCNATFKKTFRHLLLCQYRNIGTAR

[3] = target: T3, Muscarinic acetylcholine receptor M4 (Homo sapiens, UniProt P08173); assay: Positive allosteric modulation of human M4 AchR
T3 sequence (P08173 whole entry): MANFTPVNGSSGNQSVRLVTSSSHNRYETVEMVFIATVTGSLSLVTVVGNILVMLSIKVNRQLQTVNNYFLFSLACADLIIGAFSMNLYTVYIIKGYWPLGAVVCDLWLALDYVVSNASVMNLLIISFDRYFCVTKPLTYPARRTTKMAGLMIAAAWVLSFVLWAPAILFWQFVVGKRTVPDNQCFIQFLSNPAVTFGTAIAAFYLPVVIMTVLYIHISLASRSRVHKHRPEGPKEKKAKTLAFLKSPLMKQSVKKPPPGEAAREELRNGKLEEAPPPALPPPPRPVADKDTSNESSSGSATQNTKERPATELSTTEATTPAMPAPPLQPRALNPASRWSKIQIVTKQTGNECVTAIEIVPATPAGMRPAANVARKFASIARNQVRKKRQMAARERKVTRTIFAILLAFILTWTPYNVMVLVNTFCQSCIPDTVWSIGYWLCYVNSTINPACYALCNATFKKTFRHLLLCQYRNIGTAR

[4] = target: D(2) dopamine receptor (Homo sapiens) (UniProt P14416); assay: Negative allosteric modulation of D2R (unknown origin) assessed as decrease in [3H]NPA binding at 1 uM relative to control
D(2) dopamine receptor (Homo sapiens), sequence (P14416 whole entry): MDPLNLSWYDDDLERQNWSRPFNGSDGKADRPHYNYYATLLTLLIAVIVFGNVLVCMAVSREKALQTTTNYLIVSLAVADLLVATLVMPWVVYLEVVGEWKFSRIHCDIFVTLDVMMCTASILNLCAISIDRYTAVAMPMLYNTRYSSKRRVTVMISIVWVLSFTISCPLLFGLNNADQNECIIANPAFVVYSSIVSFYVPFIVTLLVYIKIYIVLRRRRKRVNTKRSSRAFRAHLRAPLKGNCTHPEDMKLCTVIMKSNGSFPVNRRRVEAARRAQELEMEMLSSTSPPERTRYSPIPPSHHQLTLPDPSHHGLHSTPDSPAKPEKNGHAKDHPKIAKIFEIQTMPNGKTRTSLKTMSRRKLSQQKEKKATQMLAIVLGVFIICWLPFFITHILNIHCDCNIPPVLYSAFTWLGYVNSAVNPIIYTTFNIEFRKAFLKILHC

[5] = target: D(2) dopamine receptor (Homo sapiens) (UniProt P14416); assay: Negative allosteric modulation of D2R (unknown origin) assessed as decrease in [3H]NPA binding at 10 uM relative to control
[6] = target: T4, Muscarinic acetylcholine receptor M1 (Homo sapiens, UniProt P11229); assay: Positive allosteric modulation of M1 AchR (unknown origin)
T4 sequence (P11229 whole entry): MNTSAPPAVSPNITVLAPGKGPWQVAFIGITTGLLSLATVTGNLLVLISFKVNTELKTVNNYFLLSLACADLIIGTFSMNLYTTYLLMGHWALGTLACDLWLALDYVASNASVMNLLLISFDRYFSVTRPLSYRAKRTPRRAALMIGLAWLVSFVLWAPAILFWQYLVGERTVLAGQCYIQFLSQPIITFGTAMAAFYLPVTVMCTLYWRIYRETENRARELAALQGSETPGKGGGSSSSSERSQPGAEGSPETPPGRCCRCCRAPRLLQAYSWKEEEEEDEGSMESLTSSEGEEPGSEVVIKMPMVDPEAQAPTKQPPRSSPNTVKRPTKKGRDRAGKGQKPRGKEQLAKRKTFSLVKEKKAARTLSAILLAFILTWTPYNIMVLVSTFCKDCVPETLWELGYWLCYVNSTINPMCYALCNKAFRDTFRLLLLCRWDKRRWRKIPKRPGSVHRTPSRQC

[7] = target: T5, C-X-C chemokine receptor type 1 (Homo sapiens, UniProt P25024); assay: Inhibition of CXCR1 (unknown origin)
T5 sequence (P25024 whole entry): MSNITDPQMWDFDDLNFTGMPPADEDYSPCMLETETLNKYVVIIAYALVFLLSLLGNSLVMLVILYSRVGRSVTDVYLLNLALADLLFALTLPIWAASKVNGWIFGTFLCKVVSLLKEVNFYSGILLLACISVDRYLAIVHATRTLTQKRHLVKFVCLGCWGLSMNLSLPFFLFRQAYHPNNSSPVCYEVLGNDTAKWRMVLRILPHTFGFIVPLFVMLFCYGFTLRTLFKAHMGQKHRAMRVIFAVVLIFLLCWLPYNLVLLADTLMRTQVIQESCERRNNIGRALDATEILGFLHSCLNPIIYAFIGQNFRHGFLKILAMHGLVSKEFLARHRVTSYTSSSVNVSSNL

[8] = target: T6, C-X-C chemokine receptor type 2 (Homo sapiens, UniProt P25025); assay: Inhibition of CXCR2 (unknown origin)
T6 sequence (P25025 whole entry): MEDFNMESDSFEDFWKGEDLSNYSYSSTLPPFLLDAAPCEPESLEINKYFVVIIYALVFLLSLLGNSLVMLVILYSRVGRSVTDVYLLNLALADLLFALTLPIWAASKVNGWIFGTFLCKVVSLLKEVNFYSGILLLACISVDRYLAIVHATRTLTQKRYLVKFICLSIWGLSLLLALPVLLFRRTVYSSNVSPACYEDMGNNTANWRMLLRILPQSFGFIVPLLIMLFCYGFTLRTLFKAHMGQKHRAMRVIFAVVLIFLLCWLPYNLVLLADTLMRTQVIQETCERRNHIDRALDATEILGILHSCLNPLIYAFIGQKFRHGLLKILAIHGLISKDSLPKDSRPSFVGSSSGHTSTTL

[9] = target: T7, C-X-C chemokine receptor type 3 (Homo sapiens) (UniProt P49682); assay: Inhibition of [3H]RAMX3 binding to CXCR3 (unknown origin) relative to control; conditions: concentration not given here
T7 sequence (whole entry): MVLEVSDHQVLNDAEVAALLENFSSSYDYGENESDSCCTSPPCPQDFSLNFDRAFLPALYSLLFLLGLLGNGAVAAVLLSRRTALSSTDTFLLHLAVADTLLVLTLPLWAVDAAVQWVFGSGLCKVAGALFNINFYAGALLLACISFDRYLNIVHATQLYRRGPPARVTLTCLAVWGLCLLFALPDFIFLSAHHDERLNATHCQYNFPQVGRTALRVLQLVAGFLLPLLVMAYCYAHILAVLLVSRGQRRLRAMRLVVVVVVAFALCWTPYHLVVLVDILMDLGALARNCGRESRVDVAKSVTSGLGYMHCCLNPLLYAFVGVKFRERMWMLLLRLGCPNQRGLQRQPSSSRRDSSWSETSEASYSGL

[10] = target: T8, 5-hydroxytryptamine receptor 2C (Homo sapiens) (UniProt P28335); assay: Positive allosteric modulation of 5-HT2C receptor (unknown origin) assessed as increase in 5-HT-induced displacement of [3H]mesulergine by measuring fold reduction in 5-HT Ki at 20 uM relative to control
T8 sequence (whole entry): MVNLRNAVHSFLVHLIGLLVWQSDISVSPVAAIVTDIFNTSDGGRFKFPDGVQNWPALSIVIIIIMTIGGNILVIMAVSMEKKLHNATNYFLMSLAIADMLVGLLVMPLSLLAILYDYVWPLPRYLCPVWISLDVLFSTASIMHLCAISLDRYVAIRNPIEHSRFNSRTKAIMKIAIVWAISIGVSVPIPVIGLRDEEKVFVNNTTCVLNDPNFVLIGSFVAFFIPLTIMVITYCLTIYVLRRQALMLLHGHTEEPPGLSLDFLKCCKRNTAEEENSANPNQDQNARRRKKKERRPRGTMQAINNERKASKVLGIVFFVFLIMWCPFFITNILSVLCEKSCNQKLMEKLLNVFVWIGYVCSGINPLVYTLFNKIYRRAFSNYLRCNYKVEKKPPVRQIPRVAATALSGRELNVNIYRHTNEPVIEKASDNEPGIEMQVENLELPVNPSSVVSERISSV

[11] = target: T8, 5-hydroxytryptamine receptor 2C (Homo sapiens); assay: Agonist activity at 5-HT2C receptor (unknown origin) expressed in HEK293 cells assessed as IP3 release at 10 uM relative to 5-HT maximal response
[12] = target: Cannabinoid receptor 1 (Mus musculus) (UniProt P47746); assay: Positive allosteric modulation of CB1R in MF1 mouse brain membranes assessed as increase in anandamide-stimulated [35S]GTPgammaS binding after 60 mins relative to control; type: functional, cell membranes
Cannabinoid receptor 1 (Mus musculus), sequence (P47746 whole entry): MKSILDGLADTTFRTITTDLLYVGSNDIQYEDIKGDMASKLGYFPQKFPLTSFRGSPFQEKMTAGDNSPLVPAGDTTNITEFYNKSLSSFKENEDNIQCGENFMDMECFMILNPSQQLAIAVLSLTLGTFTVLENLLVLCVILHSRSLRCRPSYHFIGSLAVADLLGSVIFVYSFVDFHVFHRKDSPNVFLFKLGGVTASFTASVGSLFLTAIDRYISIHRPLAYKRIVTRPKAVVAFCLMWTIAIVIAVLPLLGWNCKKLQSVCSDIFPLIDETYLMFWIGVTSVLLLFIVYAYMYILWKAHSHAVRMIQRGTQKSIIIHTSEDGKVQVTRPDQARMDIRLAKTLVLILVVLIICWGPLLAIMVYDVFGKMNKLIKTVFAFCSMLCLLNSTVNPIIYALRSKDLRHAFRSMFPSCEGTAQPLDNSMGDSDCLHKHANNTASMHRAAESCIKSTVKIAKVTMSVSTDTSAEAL

[13] = target: Cannabinoid receptor 1 (Mus musculus) (UniProt P47746); assay: Positive allosteric modulation of CB1R in MF1 mouse brain membranes assessed as increase in [3H]WIN55212-2 binding after 60 mins relative to control; type: cell membranes
[14] = target: Cannabinoid receptor 1 (Mus musculus) (UniProt P47746); assay: Positive allosteric modulation of CB1R in MF1 mouse brain membranes assessed as increase in [3H]CP55940 binding after 60 mins relative to control; type: cell membranes
[15] = target: T9, Muscarinic acetylcholine receptor M4 (Homo sapiens) (UniProt P08173); assay: Positive allosteric modulation of human M4 AchR expressed in CHO cells assessed as increase in acteylcholine-induced calcium mobilization by FLIPR assay; type: functional, cell-based
T9 sequence (whole entry): T3 sequence (P08173 whole entry)

[16] = target: Cannabinoid receptor 1 (Homo sapiens) (UniProt P21554); assay: Positive allosteric modulation of human CB1R assessed as potentiation of CP55940-induced calcium mobilization at […] by cell based assay relative to control; type: functional
Cannabinoid receptor 1 (Homo sapiens), sequence (P21554 whole entry): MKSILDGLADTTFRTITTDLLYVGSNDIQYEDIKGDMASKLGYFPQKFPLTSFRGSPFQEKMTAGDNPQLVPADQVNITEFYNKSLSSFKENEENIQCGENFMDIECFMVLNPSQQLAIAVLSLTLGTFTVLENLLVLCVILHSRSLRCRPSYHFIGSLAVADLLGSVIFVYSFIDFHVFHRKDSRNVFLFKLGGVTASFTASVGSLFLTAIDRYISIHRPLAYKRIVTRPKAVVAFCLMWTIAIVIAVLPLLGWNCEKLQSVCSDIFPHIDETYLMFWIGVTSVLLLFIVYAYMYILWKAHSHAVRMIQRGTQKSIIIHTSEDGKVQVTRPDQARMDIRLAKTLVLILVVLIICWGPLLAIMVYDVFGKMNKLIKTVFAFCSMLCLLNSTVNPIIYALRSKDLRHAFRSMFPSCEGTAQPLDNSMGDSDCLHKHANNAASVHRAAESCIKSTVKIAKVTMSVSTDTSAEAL

[17] = target: T10, Muscarinic acetylcholine receptor M5 (Homo sapiens) (UniProt P08912); assay: Positive allosteric modulation of M5 AchR (unknown origin) assessed as increase in acetylcholine-induced response relative to control
T10 sequence (whole entry): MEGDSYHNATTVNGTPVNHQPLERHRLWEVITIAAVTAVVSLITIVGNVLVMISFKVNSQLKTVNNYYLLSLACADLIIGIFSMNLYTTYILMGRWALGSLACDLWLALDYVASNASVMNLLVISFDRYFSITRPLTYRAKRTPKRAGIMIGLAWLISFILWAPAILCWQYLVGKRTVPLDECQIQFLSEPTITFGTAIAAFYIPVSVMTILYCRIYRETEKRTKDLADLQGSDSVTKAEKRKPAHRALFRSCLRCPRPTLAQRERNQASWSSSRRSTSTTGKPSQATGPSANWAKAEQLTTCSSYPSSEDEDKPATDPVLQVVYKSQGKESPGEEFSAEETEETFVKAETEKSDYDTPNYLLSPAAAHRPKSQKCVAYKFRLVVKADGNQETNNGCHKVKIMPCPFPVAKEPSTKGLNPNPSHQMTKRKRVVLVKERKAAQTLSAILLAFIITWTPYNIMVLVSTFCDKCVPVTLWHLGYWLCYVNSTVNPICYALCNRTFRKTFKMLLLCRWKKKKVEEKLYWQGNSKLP

## N#CCN(Cc1ccccc1)Cc1ccc2ccccc2c1
[1]
  inhibition: 30%

## Cc1cc(OCc2ccncc2)nc2sc(C(=O)NCc3cccc(F)c3F)c(N)c12
[2]
  EC50: 2400 nM
[3]
  EC50: 95 nM

## CC1(C)S[C@@H]2CC[C@]3(CCCN3C(=O)[C@@H]3CCCN3)C(=O)N2[C@H]1C(N)=O
[4]
  fold change (FC): 2.7
[5]
  fold change (FC): 2.8

## COc1ccc(Cn2cc(C(=O)N[C@H]3CCCC[C@@H]3O)c3ncccc32)cc1
[6]
  EC50: 1800 nM

## C[C@@H](C(=O)NS(C)(=O)=O)c1ccc(OS(=O)(=O)C(F)(F)F)cc1
[7]
  IC50: 0.1 nM
[8]
  IC50: 0.1 nM

## CCOc1ccc(-n2c(C(C)N(CC3CCN(Cc4ccc(C5(C(F)(F)F)N=N5)cc4)CC3)C(=O)Cc3ccc(F)c(C(F)(F)F)c3)nc3ncccc3c2=O)cc1 (stereo not given)
[9]
  inhibition: 80%

## CCCCCCCCCCC[C@@H]1CCN[C@H](C(=O)N[C@@H]([C@H]2O[C@H](SC)[C@H](O)[C@@H](O)[C@H]2O)[C@H](C)Cl)C1
[10]
  fold change (FC): 25
[11]
  Emax: < 71%

## Cc1ccc2c(C(C[N+](=O)[O-])c3cccs3)c(-c3ccccc3)[nH]c2c1 (stereo not given)
[12]
  Activity: 40%
[13]
  Emax: 225%
[14]
  Emax: 207%

## COc1nc2sc(C(=O)NC3CC3)c(N)c2c(C)c1Cl
[15]
  Kb: 200 nM

## Cc1cc(NC(=O)CS(=O)(=O)c2cn(Cc3ccc(-c4cnn(C)c4)nc3)c3cc(F)cc(F)c23)no1
[6]
  EC50: 310 nM

## Cc1ccc([C@H]2CC3CCC([C@H]2c2cc(-c4ccc(Cl)cc4)no2)N3C)cc1 (stereo not given in full)
[16]
  Emax: 36%

## CC1(C)S[C@@H]2CC[C@]3(CCCN3C(=O)[C@@H]3CCCN3)C(=O)N2[C@@H]1C(N)=O
[4]
  fold change (FC): 2.7
[5]
  fold change (FC): 2.8

## CCN(Cc1ccccc1C(F)(F)F)C(=O)C1CCN(S(=O)(=O)c2ccc3[nH]ncc3c2)CC1
[17]
  fold change (FC): 9.3

— ChEMBL document CHEMBL4308844, “Allosteric Modulation of Class A GPCRs: Targets, Agents, and Emerging Concepts” (J Med Chem, 2018)
